# Tests used:
# Staphylococcus = conditions: against Staphylococcus; cited from earlier work
# Pseudomonas = conditions: against Pseudomonas, compared with other known cephalosporins; cited from earlier work
# enterobacteria = conditions: against the enterobacteria; cited from earlier work
# [1] = molecular target: T1, β-lactamase from Enterobacter cloacae P99 (Enterobacter cloacae, UniProt P05364); assay: Stability against β-lactamase, relative hydrolysis; format: biochemical; conditions: Enterobacter cloacae P99 enzyme; 100 μM; relative(percentage), Cephaloridine taken as 100; OD at 260 nm
# T1 construct: directly isolated from Enterobacter cloacae P99, E. coli TEM and Citrobacter freundii; endogenous in cells; host or cells: Enterobacter cloacae P99
# Description: (§1) The β-lactamases employed in the test were directly isolated from Enterobacter cloacae P99, E. coli TEM and Citrobacter freundii, and the antibiotics for comparison were Cephaloridine, Cephradine, Cefoperazone and Cefotaxime.
# The relative hydrolysis of various compounds were calculated relative to the OD of Cephaloridine.
# [2] = molecular target: T2, β-lactamase from Citrobacter freundii (Citrobacter freundii, UniProt P05193); assay: Stability against β-lactamase, relative hydrolysis; format: biochemical; conditions: Citrobacter freundii enzyme; 100 μM; relative(percentage), Cephaloridine taken as 100; OD at 260 nm
# T2 construct: directly isolated from Enterobacter cloacae P99, E. coli TEM and Citrobacter freundii; endogenous in cells
# Description: (§2) In order to establish the usefulness in clinical applications of the compounds provided by the invention, the compound of Example 18 was tested for stability against the β-lactamase and for antibacterial activity on systemic infection model.
# (§3) First, the stability against the β-lactamase was tested by determining the relative(percentage) hydrolysis of the compound of Example 18, relative to that of Cephaloridine, taking the absolute rate of Cephaloridine as 100.
# as §1
# (§4) Cephaloridine, other known antibiotics and the compound of Example 18 were reacted with each of the enzymes isolated from the strains and the OD were determined at 260 nm, λmax of Cephaloridine. The relative hydrolysis of various compounds were calculated relative to the OD of Cephaloridine.
# [3] = molecular target: T3, β-lactamase from E. coli TEM (Escherichia coli, UniProt P62593); assay: Stability against β-lactamase, relative hydrolysis; format: biochemical; conditions: E. coli TEM enzyme; 100 μM; relative(percentage), Cephaloridine taken as 100; OD at 260 nm
# T3 construct: directly isolated from Enterobacter cloacae P99, E. coli TEM and Citrobacter freundii; endogenous in cells; host or cells: E. coli TEM (plasmid-carried enzyme of the strain)
# Description: as §2, §3, §1, §4
# [4] = test system: Streptococcus pyogenes A 308; assay: Antibacterial activity, MIC by Agar dilution method, standard test strain 1; format: cell-based; conditions: A308, 10^7 CFU/ml, 37° C., 18 hours
# Description: (§5) The antibacterial activity was determined by an Agar dilution method as described below.
# (§6) That is, the two-fold serial dilutions of the antibacterial compounds (1000 μg compound/ml) were prepared and dispersed in Muller Hinton Agar in a petri dish to a concentration of 100~0.002 μg/ml. The culture broths of standard test strains were inoculated on the medium to a concentration 10^7 CFU/ml, and incubated at 37° C. for 18 hours. The concentration of compounds(I) at which the strains were not grown was regarded as minimum inhibition concentration (MIC).
# (§7) The results of antibacterial activity test of the representative examples of the compound (I) against 20 standard test strains shown in terms of MIC were indicated in Table 1.
# 1. Streptococcus pyogenes A 308
# [5] = test system: Streptococcus pyogenes A 77; assay: Antibacterial activity, MIC by Agar dilution method, standard test strain 2; format: cell-based; conditions: A77, 10^7 CFU/ml, 37° C., 18 hours
# Description: as §5, §6, §7
# 2. Streptococcus pyogenes A 77
# [6] = test system: Streptococcus faecium MD 86; assay: Antibacterial activity, MIC by Agar dilution method, standard test strain 3; format: cell-based; conditions: Enterococcus faecium, MD86, 10^7 CFU/ml, 37° C., 18 hours
# Description: as §5, §6, §7
# 3. Streptococcus faecium MD 86
# [7] = test system: Staphylococcus aureus SG 511; assay: Antibacterial activity, MIC by Agar dilution method, standard test strain 4; format: cell-based; conditions: SG511, 10^7 CFU/ml, 37° C., 18 hours
# Description: as §5, §6, §7
# 4. Staphylococcus aureus SG 511
# Staphyloccus aureus 285 = assay: Antibacterial activity, MIC by Agar dilution method, standard test strain 5; format: cell-based; conditions: 10^7 CFU/ml, 37° C., 18 hours
# Description: as §5, §6, §7
# 5. Staphyloccus aureus 285
# [8] = test system: Staphylococcus aureus 503; assay: Antibacterial activity, MIC by Agar dilution method, standard test strain 6; format: cell-based; conditions: 10^7 CFU/ml, 37° C., 18 hours
# Description: as §5, §6, §7
# 6. Staphylococcus aureus 503
# Escherichia coli O 55 = assay: Antibacterial activity, MIC by Agar dilution method, standard test strain 7; format: cell-based; conditions: O55; Escherichia coli O 55; 10^7 CFU/ml, 37° C., 18 hours; read-out: MIC
# Description: as §5, §6, §7
# Escherichia coli DC O = assay: Antibacterial activity, MIC by Agar dilution method, standard test strain 8; format: cell-based; conditions: Escherichia coli DC O; 10^7 CFU/ml, 37° C., 18 hours; read-out: MIC
# Description: as §5, §6, §7
# Escherichia coli DC 2 = assay: Antibacterial activity, MIC by Agar dilution method, standard test strain 9; format: cell-based; conditions: Escherichia coli, DC2, 18 h
# Description: as §5, §6, §7
# Escherichia coli TEM = assay: Antibacterial activity, MIC by Agar dilution method, standard test strain 10; format: cell-based; conditions: Escherichia coli TEM; 10^7 CFU/ml, 37° C., 18 hours; read-out: MIC
# Description: as §5, §6, §7
# Escherichia coli 1507E = assay: Antibacterial activity, MIC by Agar dilution method, standard test strain 11; format: cell-based; conditions: Escherichia coli 1507E; 10^7 CFU/ml, 37° C., 18 hours; read-out: MIC
# Description: as §5, §6, §7
# [9] = test system: Pseudomonas aeruginosa 9027; assay: Antibacterial activity, MIC by Agar dilution method, standard test strain 12; format: cell-based; conditions: 10^7 CFU/ml, 37° C., 18 hours
# Description: as §5, §6, §7
# 12. Pseudomonas aeruginosa 9027
# [10] = test system: Pseudomonas aeruginosa 1592E; assay: Antibacterial activity, MIC by Agar dilution method, standard test strain 13; format: cell-based; conditions: 10^7 CFU/ml, 37° C., 18 hours
# Description: as §5, §6, §7
# 13. Pseudomonas aeruginosa 1592E
# [11] = test system: Pseudomonas aeruginosa 1771; assay: Antibacterial activity, MIC by Agar dilution method, standard test strain 14; format: cell-based; conditions: 10^7 CFU/ml, 37° C., 18 hours
# Description: as §5, §6, §7
# 14. Pseudomonas aeruginosa 1771
# [12] = test system: Pseudomonas aeruginosa 1771M; assay: Antibacterial activity, MIC by Agar dilution method, standard test strain 15; format: cell-based; conditions: 18 h
# Description: as §5, §6, §7
# 15. Pseudomonas aeruginosa 1771M
# Salmonella typhimurium = assay: Antibacterial activity, MIC by Agar dilution method, standard test strain 16; format: cell-based; conditions: Salmonella enterica, 10^7 CFU/ml, 37° C., 18 hours
# Description: as §5, §6, §7
# 16. Salmonella typhimurium
# Klebsiella oxytoca 1082E = assay: Antibacterial activity, MIC by Agar dilution method, standard test strain 17; format: cell-based; conditions: 10^7 CFU/ml, 37° C., 18 hours
# Description: as §5, §6, §7
# [13] = test system: Klebsiella aerogenes 1522E; assay: Antibacterial activity, MIC by Agar dilution method, standard test strain 18; format: cell-based; conditions: Klebsiella aerogenes 1522E; 10^7 CFU/ml, 37° C., 18 hours; read-out: MIC
# Description: as §5, §6, §7
# 18. Klebsiella aerogenes 1522E
# Enterobacter cloacae P99 = assay: Antibacterial activity, MIC by Agar dilution method, standard test strain 19; format: cell-based; conditions: P99, 18 h
# Description: as §5, §6, §7
# 19. Enterobacter cloacae P99
# [14] = test system: Enterobacter cloacae 1321E; assay: Antibacterial activity, MIC by Agar dilution method, standard test strain 20; format: cell-based; conditions: Enterobacter cloacae 1321E; 10^7 CFU/ml, 37° C., 18 hours; read-out: MIC
# Description: as §5, §6, §7
# 20. Enterobacter cloacae 1321E
# T2 sequence (P05193 21-381): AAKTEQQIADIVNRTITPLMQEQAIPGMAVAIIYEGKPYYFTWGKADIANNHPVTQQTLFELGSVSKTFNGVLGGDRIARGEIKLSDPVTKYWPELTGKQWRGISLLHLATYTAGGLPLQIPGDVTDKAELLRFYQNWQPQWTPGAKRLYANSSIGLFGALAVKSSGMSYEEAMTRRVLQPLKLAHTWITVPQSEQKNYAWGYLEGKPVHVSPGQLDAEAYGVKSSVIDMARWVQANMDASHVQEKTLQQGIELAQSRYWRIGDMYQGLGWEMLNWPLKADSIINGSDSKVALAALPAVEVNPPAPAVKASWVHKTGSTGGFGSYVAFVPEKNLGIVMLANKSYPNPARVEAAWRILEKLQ
# T1 sequence (P05364 21-381): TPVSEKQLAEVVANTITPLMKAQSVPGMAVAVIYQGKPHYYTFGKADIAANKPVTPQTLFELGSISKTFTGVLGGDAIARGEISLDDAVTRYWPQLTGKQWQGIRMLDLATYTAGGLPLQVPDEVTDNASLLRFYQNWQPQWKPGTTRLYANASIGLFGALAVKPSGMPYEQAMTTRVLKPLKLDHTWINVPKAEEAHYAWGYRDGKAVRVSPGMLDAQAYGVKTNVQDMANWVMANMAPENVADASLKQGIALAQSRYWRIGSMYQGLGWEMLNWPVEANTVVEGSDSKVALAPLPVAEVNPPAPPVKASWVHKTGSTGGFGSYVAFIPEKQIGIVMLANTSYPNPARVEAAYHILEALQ
# T3 sequence (P62593 24-286 limits assumed): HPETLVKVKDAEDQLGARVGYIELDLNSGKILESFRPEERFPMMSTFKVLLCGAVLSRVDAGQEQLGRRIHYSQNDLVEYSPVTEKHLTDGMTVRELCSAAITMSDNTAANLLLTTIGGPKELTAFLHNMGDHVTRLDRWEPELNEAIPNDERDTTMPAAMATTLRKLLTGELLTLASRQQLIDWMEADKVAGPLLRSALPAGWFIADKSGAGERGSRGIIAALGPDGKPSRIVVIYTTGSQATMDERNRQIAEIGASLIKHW
structure (smiles),measurement,setting,value
CC(C)(O/N=C(\C(=O)N[C@@H]1C(=O)N2C(C(=O)[O-])=C(C[n+]3ccccc3)CS[C@H]12)c1csc(N)n1)C(=O)O [Ceftazidime],antibacterial activity (in words),Staphylococcus,poor antibacterial activity
same,antibacterial activity (in words),Pseudomonas,relatively stronger
same,antibacterial activity (in words),enterobacteria,strong antibacterial activities
CO/N=C(\C(=O)N[C@@H]1C(=O)N2C(C(=O)O)=C(CSc3nnnn3C)CS[C@H]12)c1csc(N)n1 [Cefmenoxime],antibacterial activity (in words),enterobacteria,strong antibacterial activities
O=C(Cc1cccs1)N[C@@H]1C(=O)N2C(C(=O)[O-])=C(C[n+]3ccccc3)CS[C@H]12 [Cephaloridine],Relative hydrolysis by β-lactamase,[1],100
same,Relative hydrolysis by β-lactamase,[2],100
same,Relative hydrolysis by β-lactamase,[3],100
"CO/N=C(\C(=O)N[C@@H]1C(=O)N2C(C(=O)O)=C(COC(C)=O)CS[C@H]12)c1csc(N)n1 [Cefotaxime, reference compound]",MIC,[4],0.007 µg/mL
same,MIC,[5],0.004 µg/mL
same,MIC,[6],100 µg/mL
same,MIC,[7],1.56 µg/mL
same,MIC,Staphyloccus aureus 285,1.56 µg/mL
same,MIC,[8],0.781 µg/mL
same,MIC,Escherichia coli O 55,0.007 µg/mL
same,MIC,Escherichia coli DC O,0.025 µg/mL
same,MIC,Escherichia coli DC 2,0.013 µg/mL
same,MIC,Escherichia coli TEM,0.025 µg/mL
same,MIC,Escherichia coli 1507E,0.025 µg/mL
same,MIC,[9],12.5 µg/mL
same,MIC,[10],12.5 µg/mL
same,MIC,[11],6.25 µg/mL
same,MIC,[12],0.098 µg/mL
same,MIC,Salmonella typhimurium,0.025 µg/mL
same,MIC,Klebsiella oxytoca 1082E,0.781 µg/mL
same,MIC,[13],0.013 µg/mL
same,MIC,Enterobacter cloacae P99,100 µg/mL
same,MIC,[14],0.013 µg/mL
same,Relative hydrolysis by β-lactamase,[1],0.0
same,Relative hydrolysis by β-lactamase,[2],0.6
same,Relative hydrolysis by β-lactamase,[3],0.6
same,antibacterial activity (in words),enterobacteria,strong antibacterial activities
CCN1CCN(C(=O)N[C@@H](C(=O)N[C@@H]2C(=O)N3C(C(=O)O)=C(CSc4nnnn4C)CS[C@H]23)c2ccc(O)cc2)C(=O)C1=O [Cefoperazone],Relative hydrolysis by β-lactamase,[2],1.2
same,Relative hydrolysis by β-lactamase,[3],38.6
CC1=C(C(=O)O)N2C(=O)[C@@H](NC(=O)[C@H](N)C3=CCC=CC3)[C@H]2SC1 [Cephradine],Relative hydrolysis by β-lactamase,[1],14.9
same,Relative hydrolysis by β-lactamase,[2],13.6
same,Relative hydrolysis by β-lactamase,[3],0.8
CO/N=C(\C(=O)N[C@@H]1C(=O)N2C(C(=O)O)=C(CSc3nc(=O)c(=O)[nH]n3C)CS[C@H]12)c1csc(N)n1 [Ceftriaxone],antibacterial activity (in words),enterobacteria,strong antibacterial activities
